pIC50: −log10 of the molar value.
Tests used:
Monkey [1] = test: Heart rate determined at dosage of 10 mg/kg in male cynomolgus monkey; assay type: functional, Cercopithecidae
[2] = Percent of compound found in 24 hr urine samples after, intravenous administration; assay type: ADME; conditions: read-out: Activity
Monkey [3] = test: Inhibition of Plasma renin activity was observed in male cynomolgus monkey at dose of 10 mg/kg; assay type: functional, Cercopithecidae
[4] = Percent of radiolabel found in 24 hr urine samples after intravenous administration; assay type: ADME
Renin = target: T1, Renin (Homo sapiens, UniProt P00797); test: Evaluated in vitro for inhibitory potency against renin.
T1 sequence (P00797 whole entry): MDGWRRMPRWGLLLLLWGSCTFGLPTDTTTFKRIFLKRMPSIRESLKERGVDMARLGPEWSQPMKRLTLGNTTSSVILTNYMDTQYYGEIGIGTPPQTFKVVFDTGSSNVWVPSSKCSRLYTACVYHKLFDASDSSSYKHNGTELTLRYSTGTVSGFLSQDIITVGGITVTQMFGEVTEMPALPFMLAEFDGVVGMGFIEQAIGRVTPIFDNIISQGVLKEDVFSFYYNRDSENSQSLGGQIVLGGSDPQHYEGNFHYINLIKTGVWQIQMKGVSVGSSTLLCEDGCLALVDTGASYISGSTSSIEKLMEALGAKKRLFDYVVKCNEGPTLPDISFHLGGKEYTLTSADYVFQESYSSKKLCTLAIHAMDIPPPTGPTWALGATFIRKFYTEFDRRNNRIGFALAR

[5] = Percent of [3H]- histidine found in 24 hr urine samples after intravenous administration; assay type: ADME
Rattus norvegicus [6] = test: Percent radioactivity in excreta of rats 24 hr following intraduodenal administration of the compound in feces; assay type: ADME, organism-based; conditions: in vivo, other
Pepsin A (Sus scrofa) = Pepsin A (Sus scrofa) (UniProt P00791); test: Evaluated for the percentage of inhibition of porcine pepsin at E-5M concentration
Rattus norvegicus [7] = test: Percent radioactivity in excreta of rats 24 h following intravenous administration in feces; assay type: ADME, organism-based; conditions: in vivo
[8] = Percent of compound found in 24 hr urine samples after intraduodenal administration; assay type: ADME; conditions: read-out: Activity
Rattus norvegicus [9] = test: Percent radioactivity in excreta of rats 24 hr following intravenous administration in urine; assay type: ADME, organism-based; conditions: in vivo
[10] = Percent of [3H]- histidine found in 24 hr urine samples after intraduodenal administration; assay type: ADME; conditions: other
Monkey [11] = test: Mean blood pressure was measured in salt depleted male cynomolgus monkey at dose of 10 mg/kg intravenously; assay type: functional, Cercopithecidae; conditions: route intravenous
Monkey [12] = test: Heart rate determined at dosage of 1.0 mg/kg in male cynomolgus monkey; assay type: functional, Cercopithecidae
Monkey [13] = test: Mean blood pressure was measured in salt depleted male cynomolgus monkey at dose of 1.0 mg/kg intravenously; assay type: functional, Cercopithecidae; conditions: route intravenous
Cathepsin D (Bos taurus) = target: T2, Cathepsin D (Bos taurus) (UniProt P80209); test: Evaluated for the percentage of inhibition of bovine cathepsin D at E-5M concentration
T2 sequence (whole entry): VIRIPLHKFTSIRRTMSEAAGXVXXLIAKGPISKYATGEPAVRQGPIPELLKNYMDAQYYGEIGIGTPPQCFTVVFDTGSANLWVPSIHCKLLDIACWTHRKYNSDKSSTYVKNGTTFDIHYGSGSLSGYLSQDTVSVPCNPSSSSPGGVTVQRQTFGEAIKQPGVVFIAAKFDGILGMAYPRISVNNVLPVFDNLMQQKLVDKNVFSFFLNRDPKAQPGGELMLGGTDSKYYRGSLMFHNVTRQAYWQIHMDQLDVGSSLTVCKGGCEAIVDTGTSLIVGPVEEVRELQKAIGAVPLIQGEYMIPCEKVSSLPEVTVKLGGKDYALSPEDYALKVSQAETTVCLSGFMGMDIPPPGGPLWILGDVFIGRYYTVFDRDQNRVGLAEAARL

Monkey [14] = test: Inhibition of Plasma renin activity was observed in male cynomolgus monkey at dose of 1.0 mg/kg; assay type: functional, Cercopithecidae
Rattus norvegicus [15] = test: Percent radioactivity in excreta of rats 24 hr following intraduodenal administration of the compound in urine; assay type: ADME, organism-based; conditions: in vivo, other
[16] = Percent of radiolabel found in 24 hr urine samples after intraduodenal administration; assay type: ADME; conditions: other

Chain of Pepsin A (Sus scrofa) (P00791 60-385 limits assumed): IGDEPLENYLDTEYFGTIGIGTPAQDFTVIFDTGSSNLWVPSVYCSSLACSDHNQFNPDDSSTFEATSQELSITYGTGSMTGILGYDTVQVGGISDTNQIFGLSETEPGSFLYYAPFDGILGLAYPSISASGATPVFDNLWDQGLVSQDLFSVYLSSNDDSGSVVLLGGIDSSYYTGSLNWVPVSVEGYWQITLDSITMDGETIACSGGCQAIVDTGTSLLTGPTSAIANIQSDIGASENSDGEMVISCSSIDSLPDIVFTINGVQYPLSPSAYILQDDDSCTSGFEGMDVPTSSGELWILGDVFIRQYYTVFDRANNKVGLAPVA

## CC(C)(C)OC(=O)N[C@@H](Cc1ccccc1)C(=O)N[C@@H](Cc1c[nH]cn1)C(=O)N[C@@H](CC1CCCCC1)[C@@H](O)CS(=O)(=O)C1CCCCC1
Monkey [1]
  Heart rate: 197 beats min-1
[2]
  dose excreted at 24 h: 70%
Monkey [3]
  Activity: 107.7 ng/mL/h
[4]
  Activity: 5%
Renin
  pIC50: 8.60
[5]
  Activity: 30%
Rattus norvegicus [6]
  Activity: 26.6%
Pepsin A (Sus scrofa)
  inhibition: 0%
Rattus norvegicus [7]
  Activity: 34.5%
[8]
  dose excreted at 24 h: 30%
Rattus norvegicus [9]
  Activity: 5%
[10]
  Activity: 70%
Monkey [11]
  Mean blood pressure: 73 mmHg
Monkey [12]
  Heart rate: 140 beats min-1
Monkey [13]
  Mean blood pressure: 68 mmHg
Cathepsin D (Bos taurus)
  inhibition: 0%
Monkey [14]
  Activity: 35.3 ng/mL/h
Rattus norvegicus [15]
  Activity: 0.9%
[16]
  Activity: 1%

Reference: ChEMBL document CHEMBL1123652, “Optimization and in vivo evaluations of a series of small, potent, and specific renin inhibitors containing a novel Leu-Val replacement” (J Med Chem, 1987)
